From article PMC7168207, “Dibasic Derivatives of Phenylcarbamic Acid as Prospective Antibacterial Agents Interacting with Cytoplasmic Membrane” (Antibiotics, 2020)
Several values for one entry are separate records, joined by “and”; a condition that tells them apart may be missing. Equal entries are not always repeated. Where two headings read alike, the source gives them in different places. Marks after values point to notes of the source that are not given here. Each block holds one compound with its values, some of them ahead of it.

Experiments:
S. aureus ATCC 29213 [1] = test: MIC, broth microdilution; assay type: cell-based, Staphylococcus aureus; conditions: Staphylococcus aureus, ATCC29213
In short: (§1)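 Broth microdilution at 5 × 10^5 CFU/mL final inoculum, cation-adjusted Mueller–Hinton broth for staphylococci and brain heart infusion for enterococci, incubated aerobically overnight at 37 °C.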

[2] = tested on: methicillin-resistant S. aureus 63718; test: MIC, broth microdilution; assay type: cell-based, Staphylococcus aureus; conditions: Staphylococcus aureus; MRSA1 = S. aureus 63718; read-out: MICs
In short: as §1

[3] = tested on: methicillin-resistant S. aureus SA 3202; test: MIC, broth microdilution; assay type: cell-based, Staphylococcus aureus; conditions: Staphylococcus aureus; MRSA3 = SA 3202; read-out: MICs
In short: as §1

[4] = tested on: methicillin-resistant S. aureus SA 630; test: MIC, broth microdilution; assay type: cell-based, Staphylococcus aureus; conditions: Staphylococcus aureus; MRSA2 = SA 630; read-out: MICs
In short: as §1

[5] = design: method as in PMID 30274224; conditions: methanolic solutions, c = 8.0 × 10^−5 M; cited from earlier work
VRE 342B = test: synergy with antibiotics (FIC index, checkerboard); assay type: cell-based, Enterococcus faecalis; conditions: VRE 342B
From the text: (§2) Representatives from various classes were chosen in order to study the potential difference in synergistic activity according to the diverse mechanisms of action and resistance of these drugs. The method of minimal fractional inhibitory concentration (FIC) index (FICI) in a microtitration plate was used. FICI ≤ 0.5 means synergy; 0.5 < FICI < 1 means additivity; 1 ≤ FICI < 4 means indifference; and FICI ≥ 4 means antagonism.
(§3) For synergy effect study, a method of fractional inhibitory concentration was used. […] Raw H was used for the evaluation of MIC(A); column 12 was used for evaluation of MIC(B). The plate was inoculated by the bacterial suspension to reach final concentration of 5 × 10^5 CFU/mL in the wells. The fractional inhibitory concentration (FIC) index was calculated using the concentrations in the first nonturbid (clear) well found in each row and column along the turbidity/nonturbidity interface. To interpret the combined effect, the lowest FICI was used. A ΣFIC ≤ 0.5 means synergy; 0.5 < ΣFIC < 1 means additivity; 1 ≤ ΣFIC < 4 means indifference; and ΣFIC ≥ 4 means antagonism. The tests were made in duplicate, and the results were averaged.

VRE 368 = test: synergy with antibiotics (FIC index, checkerboard); assay type: cell-based, Enterococcus faecalis; conditions: VRE 368
From the text: as §2, §3

MRSA 63718 = test: time-kill study; assay type: cell-based, Staphylococcus aureus; conditions: MRSA1
From the text: (§4) Time-kill studies are used to evaluate the dynamics of antibacterial activity. As mentioned above, a pre-test to determine minimum bactericidal concentration (MBC) by sub-cultivation of aliquots on agar was made (see Section 3.4). […] Time-kill studies were made with methicillin-susceptible S. aureus ATCC 29213 and methicillin-resistant MRSA 63718, vancomycin-susceptible E. faecalis ATCC 29212, and all three VRE isolates. Vancomycin was used as a control (Table 6).
(§5) The method of time-kill curves was used to study the bactericidal effect of selected compounds. […] The experiment was performed with S. aureus ATCC 29213, MRSA 63718, E. faecalis ATCC 29212, and all VRE isolates. […] The tubes were inoculated by bacterial inoculum in the exponential phase of growth to get a final concentration of 7.5 × 10^6 CFU/mL. The tubes were incubated statically at 37 °C. Immediately after inoculation and after 4, 6, 8, and 24 h, 100 µL of the sample was serially diluted (1:10) in PBS. Then, 2 × 20 µL from each dilution were put onto a Mueller–Hinton agar plate and cultivated at 37 °C for 24 h. After incubation, CFUs of dilutions containing 5–50 colonies were counted. Results were expressed as a decrease of log10(CFU) in each time compared to the starting inoculum. Bactericidal effect is defined as a −3log decrease of CFU/mL compared to the growth control in time 0. The test was made in duplicate on two separate occasions, and the results were averaged. The growth curves with error bars are shown in Figures S1 and S2 in Supplementary Materials.

S. aureus ATCC 29213 [6] = test: time-kill study; assay type: cell-based, Staphylococcus aureus; conditions: SA
From the text: as §4, §5

[7] = SA = S. aureus ATCC 29213, read-out: MICs
[8] = Table 7, planktonic cells of S. aureus ATCC 29213, read-out: MIC
[9] = in the combination of that line

MIC (S. aureus ATCC 29213 [1]; [7]): 16 µg/mL and 31.6 µM | MIC (S. aureus ATCC 29213 [1]; [8]): 16 µg/mL | MIC [2]: 16 µg/mL and 31.6 µM | MIC [3]: 16 µg/mL and 31.6 µM | MIC [4]: 32 µg/mL and 63.2 µM
SMILES: CCCCCOc1cccc(NC(=O)OC(CN(CCC)CCC)CN2CCCC2)c1.Cl.Cl (stereo not shown) [1f, 1-[3-(dipropylammonio)-2-({[3-(pentyloxy)phenyl]carbamoyl}-oxy)propyl]pyrrolidinium dichloride]
log ε2 (Ch-T) [5]: 4.27

MIC (S. aureus ATCC 29213 [1]; [7]): 8 µg/mL and 15.4 µM | MIC (S. aureus ATCC 29213 [1]; [8]): 8 µg/mL | MIC [2]: 8 µg/mL and 15.4 µM | MIC [3]: 8 µg/mL and 15.4 µM | MIC [4]: 16 µg/mL and 30.8 µM | MIC (VRE 342B; Enterococcus, tested compound/antibiotic, read-out: MIC of each antibacterial drug alone observed in the synergy experiment): 8 µg/mL | MIC (VRE 368; Enterococcus, VRE, tested compound/antibiotic, read-out: MIC of each antibacterial drug alone observed in the synergy experiment): 8 µg/mL
SMILES: CCCCCCOc1cccc(NC(=O)OC(CN(CCC)CCC)CN2CCCC2)c1.Cl.Cl (stereo not shown) [1g, 1-[3-(dipropylammonio)-2-({[3-(hexyloxy)phenyl]carbamoyl}oxy)propyl]pyrrolidinium dichloride]
concentrations of the tested compound/clinically used antibiotic providing additivity or synergy (VRE 342B; [9]): 4 µg/mL | concentrations of the tested compound/clinically used antibiotic providing additivity or synergy (VRE 368; [9]): 4 µg/mL | Log10 Difference in CFU/mL from Inoculum (MRSA 63718; 1 × MIC, 4 h): 0.00 log10 CFU/mL | Log10 Difference in CFU/mL from Inoculum (MRSA 63718; 1 × MIC, 6 h): 0.66 log10 CFU/mL | Log10 Difference in CFU/mL from Inoculum (MRSA 63718; 1 × MIC, 8 h): 1.00 log10 CFU/mL | Log10 Difference in CFU/mL from Inoculum (MRSA 63718; 1 × MIC, 24 h): 1.99 log10 CFU/mL | Log10 Difference in CFU/mL from Inoculum (MRSA 63718; 2 × MIC, 4 h): −1.33 log10 CFU/mL | Log10 Difference in CFU/mL from Inoculum (MRSA 63718; 2 × MIC, 6 h): −0.93 log10 CFU/mL | Log10 Difference in CFU/mL from Inoculum (MRSA 63718; 2 × MIC, 8 h): −0.26 log10 CFU/mL | Log10 Difference in CFU/mL from Inoculum (MRSA 63718; 2 × MIC, 24 h): 1.29 log10 CFU/mL | Log10 Difference in CFU/mL from Inoculum (MRSA 63718; 4 × MIC, 4 h): −2.57 * log10 CFU/mL | Log10 Difference in CFU/mL from Inoculum (MRSA 63718; 4 × MIC, 6 h): −1.99 * log10 CFU/mL | Log10 Difference in CFU/mL from Inoculum (MRSA 63718; 4 × MIC, 8 h): −1.26 * log10 CFU/mL | Log10 Difference in CFU/mL from Inoculum (MRSA 63718; 4 × MIC, 24 h): 1.21 log10 CFU/mL | Log10 Difference in CFU/mL from Inoculum (S. aureus ATCC 29213 [6]; 1 × MIC, 4 h): 1.54 log10 CFU/mL | Log10 Difference in CFU/mL from Inoculum (S. aureus ATCC 29213 [6]; 1 × MIC, 6 h): 1.98 log10 CFU/mL | Log10 Difference in CFU/mL from Inoculum (S. aureus ATCC 29213 [6]; 1 × MIC, 8 h): 2.33 log10 CFU/mL | Log10 Difference in CFU/mL from Inoculum (S. aureus ATCC 29213 [6]; 1 × MIC, 24 h): 2.74 log10 CFU/mL | Log10 Difference in CFU/mL from Inoculum (S. aureus ATCC 29213 [6]; 2 × MIC, 4 h): 0.87 log10 CFU/mL | Log10 Difference in CFU/mL from Inoculum (S. aureus ATCC 29213 [6]; 2 × MIC, 6 h): 0.98 log10 CFU/mL | Log10 Difference in CFU/mL from Inoculum (S. aureus ATCC 29213 [6]; 2 × MIC, 8 h): 1.26 log10 CFU/mL | Log10 Difference in CFU/mL from Inoculum (S. aureus ATCC 29213 [6]; 2 × MIC, 24 h): 2.24 log10 CFU/mL | Log10 Difference in CFU/mL from Inoculum (S. aureus ATCC 29213 [6]; 4 × MIC, 4 h): −0.26 log10 CFU/mL | Log10 Difference in CFU/mL from Inoculum (S. aureus ATCC 29213 [6]; 4 × MIC, 6 h): −0.04 log10 CFU/mL | Log10 Difference in CFU/mL from Inoculum (S. aureus ATCC 29213 [6]; 4 × MIC, 8 h): 0.10 log10 CFU/mL | Log10 Difference in CFU/mL from Inoculum (S. aureus ATCC 29213 [6]; 4 × MIC, 24 h): 1.85 log10 CFU/mL | log ε2 (Ch-T) [5]: 4.13
